In patent US10513521B2, “Compositions and methods for inhibiting BMP” (The Brigham and Women's Hospital, Inc., priority 2014, dated 2019) one finds IC50 data, which are given here for 18 compounds.

Positions count from the first letter of the chain named. Several values for one entry are separate records, joined by “and”; a condition that tells them apart may be missing. Equal entries are not always repeated. Where two headings read alike, the source gives them in different places.

The target of one assay is ALK3 (Homo sapiens, UniProt P36894). The experiment in a line: TR-FRET enzymatic ALK kinase assay, ALK3.
The target in another assay is ALK6 (Homo sapiens, UniProt O00238). Put plainly: TR-FRET enzymatic ALK kinase assay, ALK6. Background: Time-resolved FRET reads energy transfer from a long-lived donor to a nearby acceptor.
In assay [1] the target is T1, ALK2 (Mus musculus, UniProt P37172).
T1 construct: The C2C12 cell line was selected for the measurement of ALK2 activity using BMP6 as the agonist; host or cells: C2C12
T1 sequence (P37172 21-509): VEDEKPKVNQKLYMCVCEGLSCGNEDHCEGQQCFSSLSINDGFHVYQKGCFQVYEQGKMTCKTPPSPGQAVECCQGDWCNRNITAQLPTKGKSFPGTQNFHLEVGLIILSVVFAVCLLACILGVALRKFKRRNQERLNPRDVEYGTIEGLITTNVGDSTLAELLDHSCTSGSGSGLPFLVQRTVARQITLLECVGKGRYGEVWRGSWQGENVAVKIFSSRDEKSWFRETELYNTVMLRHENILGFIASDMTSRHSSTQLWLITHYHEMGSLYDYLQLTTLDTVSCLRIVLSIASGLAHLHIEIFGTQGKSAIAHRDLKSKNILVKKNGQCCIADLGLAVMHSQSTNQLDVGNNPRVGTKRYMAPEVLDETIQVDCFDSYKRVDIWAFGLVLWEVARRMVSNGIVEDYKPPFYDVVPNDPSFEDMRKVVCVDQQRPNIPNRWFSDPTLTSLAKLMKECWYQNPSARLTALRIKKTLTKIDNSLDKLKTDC
Put plainly: HTRF pSMAD1 cell-based ALK2 assay (C2C12 cells, BMP6 as agonist). The essentials: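 Phospho-SMAD1 HTRF readout, detection incubated overnight at room temperature. Before that: starved cells in 0.1% FBS for 4 h, 30 min compound pretreatment, then 30 min agonist, BMP6 on C2C12 or BMP9 on BAOEC.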

Assay [2] has as its target T2, ALK2 (Homo sapiens, UniProt Q04771).
T2 sequence (Q04771 21-509): T1 sequence (P37172 21-509) with V1M, Q10P, I121L, E162D, S310P
The experiment in a line: TR-FRET enzymatic ALK kinase assay, ALK2.
Procedure: (§1) Briefly, the ALKs enzymatic assay was initiated by dispense 2.5 μl enzyme in 1× kinase reaction buffer. The assay plate was then added with compounds followed by incubation at room temperature for 10 minutes. Then 2.5 μl/well substrate was added.

Where [3] appears, read: cell-based assay, BMP6, read-out: Cell IC50 BMP6.
Where [4] appears, read: HTRF assay, BMP6 as agonist, C2C12 cells, read-out: BMP6 HTRF.

Chain of ALK6 (O00238 14-502): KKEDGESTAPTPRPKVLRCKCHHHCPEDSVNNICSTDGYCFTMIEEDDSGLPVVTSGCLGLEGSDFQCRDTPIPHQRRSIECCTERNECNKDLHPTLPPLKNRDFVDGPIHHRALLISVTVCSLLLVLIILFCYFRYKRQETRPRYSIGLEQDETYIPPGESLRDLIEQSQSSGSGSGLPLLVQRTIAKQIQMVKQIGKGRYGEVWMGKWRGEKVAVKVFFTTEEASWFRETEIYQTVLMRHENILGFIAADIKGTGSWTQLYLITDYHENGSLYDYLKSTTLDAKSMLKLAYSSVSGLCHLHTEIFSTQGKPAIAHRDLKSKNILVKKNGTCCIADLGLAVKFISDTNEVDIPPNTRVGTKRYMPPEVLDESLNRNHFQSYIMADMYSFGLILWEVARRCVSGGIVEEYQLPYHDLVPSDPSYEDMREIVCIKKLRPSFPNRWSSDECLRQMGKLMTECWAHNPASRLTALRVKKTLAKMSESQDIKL
Chain of ALK3 (P36894 24-532): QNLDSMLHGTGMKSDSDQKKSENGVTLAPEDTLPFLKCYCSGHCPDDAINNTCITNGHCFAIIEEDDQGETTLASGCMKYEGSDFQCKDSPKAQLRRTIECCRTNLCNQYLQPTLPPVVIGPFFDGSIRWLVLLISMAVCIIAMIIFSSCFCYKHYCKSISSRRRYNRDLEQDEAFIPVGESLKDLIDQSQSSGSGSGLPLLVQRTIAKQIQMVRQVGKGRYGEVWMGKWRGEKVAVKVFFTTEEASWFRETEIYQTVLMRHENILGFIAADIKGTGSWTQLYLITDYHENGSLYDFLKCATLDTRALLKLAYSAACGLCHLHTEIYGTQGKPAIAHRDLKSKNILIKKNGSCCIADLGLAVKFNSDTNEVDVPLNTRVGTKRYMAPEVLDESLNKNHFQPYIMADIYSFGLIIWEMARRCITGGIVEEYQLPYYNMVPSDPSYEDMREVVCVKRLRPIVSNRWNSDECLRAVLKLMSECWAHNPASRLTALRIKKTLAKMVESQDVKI
Procedure for ALK3: as §1
Procedure for ALK6: as §1

For the compound `C[C@@H]1CNC[C@H](C)N1c1ccc(-c2cnc3c(-c4cccc(C[S+](C)(=O)[O-])c4)cnn3c2)cc1` [Compound 117, 6-(4-((2R,6S)-2,6-dimethylpiperazin-1-yl)phenyl)-3-(3-((methylsulfonyl)methyl)phenyl)pyrazolo[1,5-a]pyrimidine], the IC50 on ALK3 amounted to 3400 nM; on ALK6, 8700 nM; at ALK2 [1] (setting [3]) it was 66 nM; against ALK2 [2] it was 49 nM.
For `CC(C)(CN1CCCCC1)Oc1ccc(-c2cnc3c(-c4cccc5c(C(N)=O)cccc45)cnn3c2)cc1` [Compound 18, 5-(6-(4-((2-methyl-1-(piperidin-1-yl)propan-2-yl)oxy)phenyl)pyrazolo[1,5-a]pyrimidin-3-yl)-1-naphthamide], in that order: 35 nM, 183 nM, 11 nM and 5 nM.
Regarding `CC(C)S(=O)(=O)c1cccc(-c2cnn3cc(-c4ccc(CCN5CCCCC5)cc4)cnc23)c1` [Compound 113, 3-(3-(isopropylsulfonyl)phenyl)-6-(4-(2-(piperidin-1-yl)ethyl)phenyl)pyrazolo[1,5-a]pyrimidine], the IC50 against ALK3 is 4600 nM; at ALK6, 9200 nM; on ALK2 [1] (setting [3]), 4.6 nM; on ALK2 [2], 94 nM.
Consider `C[C@@H]1CNC[C@H](C)N1c1ccc(-c2cnc3c(-c4cccc(C(C)(C)O)c4)cnn3c2)cc1` [Compound 103, 2-(3-(6-(4-((2R,6S)-2,6-dimethylpiperazin-1-yl)phenyl)pyrazolo[1,5-a]pyrimidin-3-yl)phenyl)propan-2-ol], for which the IC50 on ALK3 was 310 nM; at ALK6 it was 4300 nM; at ALK2 [1] (setting [4]), 260 nM; on ALK2 [1] (setting [3]), 18 nM; against ALK2 [2], 13 nM.
On to `CC(C)S(=O)(=O)c1cccc(-c2cnn3cc(-c4ccc(N5[C@H](C)CNC[C@@H]5C)cc4)cnc23)c1` [Compound 114, 6-(4-((2R,6S)-2,6-dimethylpiperazin-1-yl)phenyl)-3-(3-(isopropylsulfonyl)phenyl)pyrazolo[1,5-a]pyrimidine], for which the IC50 is 1100 nM against ALK3, 6300 nM on ALK6, under 1 nM on ALK2 [1] (setting [3]) and 32 nM on ALK2 [2].
As for `CS(=O)(=O)c1cccc(-c2cnn3cc(-c4ccc(CN5CCCCC5)cc4)cnc23)c1` [Compound 123, 3-(3-(methylsulfonyl)phenyl)-6-(4-(piperidin-1-ylmethyl)phenyl)pyrazolo[1,5-a]pyrimidine], the IC50 against ALK3 was over 10000 nM; on ALK6 it was over 10000 nM; on ALK2 [1] (setting [4]), 150 nM and 130 nM; at ALK2 [1] (setting [3]), 2.4 nM; against ALK2 [2] it was 56 nM.
As to `C[S+](=O)([O-])c1cccc(-c2cnn3cc(-c4ccc(OC5(CN6CCCCC6)COC5)cc4)cnc23)c1` [Compound 93, 3-(3-(methylsulfonyl)phenyl)-6-(4-((3-(piperidin-1-ylmethyl)oxetan-3-yl)oxy)phenyl)pyrazolo[1,5-a]pyrimidine], the IC50 at ALK3 is 1500 nM; at ALK6, 2900 nM; on ALK2 [1] (setting [4]) it was 230 nM; at ALK2 [1] (setting [3]) it was 11 nM; against ALK2 [2] it was 29 nM.
With `CC1(c2ccc(-c3cnc4c(-c5cccc(S(C)(=O)=O)c5)cnn4c3)cc2)CCNCC1` [Compound 115, 6-(4-(4-methylpiperidin-4-yl)phenyl)-3-(3-(methylsulfonyl)phenyl)pyrazolo[1,5-a]pyrimidine], the IC50 amounted to 1700 nM at ALK3, 9000 nM at ALK6, 11 nM at ALK2 [1] (setting [3]) and 33 nM against ALK2 [2].
The matching figures for `CS(=O)(=O)c1cccc(-c2cnn3cc(-c4ccc(OCCN5CCCC5)cc4)cnc23)c1` [Compound 108, 3-(3-(methylsulfonyl)phenyl)-6-(4-(2-(pyrrolidin-1-yl)ethoxy)phenyl)pyrazolo[1,5-a]pyrimidine]: 2600 nM, over 10000 nM, 185 nM and 83 nM.
For `NS(=O)(=O)c1ccc(-c2cnn3cc(-c4ccc(CCN5CCCCC5)cc4)cnc23)c2ccccc12` [Compound 54, 4-(6-(4-(2-(piperidin-1-yl)ethyl)phenyl)pyrazolo[1,5-a]pyrimidin-3-yl)naphthalene-1-sulfonamide], in that order: over 10000 nM, over 10000 nM, 160 nM and 94 nM.
`C[S+](=O)([O-])c1cccc(-c2cnn3cc(-c4ccc(OCCN5CCCCC5)cc4)cnc23)c1` [Compound 109]: the IC50 against ALK3 was 1500 nM; on ALK6, over 10000 nM; at ALK2 [1] (setting [3]), 2 nM; on ALK2 [2] it was 95 nM.
Consider `CC(O)c1cccc(-c2cnn3cc(-c4ccc(N5[C@H](C)CNC[C@@H]5C)cc4)cnc23)c1` (stereo partly drawn) [Compound 83, 1-(3-(6-(4-((2R,6S)-2,6-dimethylpiperazin-1-yl)phenyl)pyrazolo[5-a]pyrimidin-3-yl)phenyl)ethanol], for which the IC50 against ALK3 was determined as 520 nM; against ALK6 it was 5400 nM; at ALK2 [1] (setting [3]), 35 nM; at ALK2 [2], 12 nM.
For the compound `C[C@@H]1CNC[C@H](C)N1c1ccc(-c2cnc3c(-c4cccc(S(C)(=O)=O)c4)cnn3c2)cc1` [Compound 82, 6-(4-((2R,6S)-2,6-dimethylpiperazin-1-yl)phenyl)-3-(3-(methylsulfonyl)phenyl)pyrazolo[1,5-a]pyrimidine], the IC50 was 540 nM against ALK3; 7900 nM on ALK6; 308 nM at ALK2 [1] (setting [4]); 1 nM on ALK2 [1] (setting [3]); 12 nM at ALK2 [2].
For `C[S+](=O)([O-])c1cccc(-c2cnn3cc(-c4ccc(OC5(Cn6ccnc6)COC5)cc4)cnc23)c1` [Compound 105, 6-(4-((3-((1H-imidazol-1-yl)methyl)oxetan-3-yl)oxy)phenyl)-3-(3-(methylsulfonyl)phenyl)pyrazolo[1,5-a]pyrimidine], in that order: over 10000 nM, over 10000 nM, 350 nM, under 1 nM and 95 nM.
The matching figures for `C[C@@H]1CNC[C@H](C)N1c1ccc(-c2cnc3c(-c4cccc5c(C(N)=O)cccc45)cnn3c2)cc1` [Compound 10, 5-(6-(4-((2S,6R)-2,6-dimethylpiperazin-1-yl)phenyl)pyrazolo[1,5-a]pyrimidin-3-yl)-1-naphthamide]: 18 nM, 34 nM, 19 nM, 4 nM and 8 nM.
As for `C[C@@H]1CNC[C@H](C)N1c1ccc(-c2cnc3c(-c4cccc([S+](=O)([O-])C5CC5)c4)cnn3c2)cc1` [Compound 111, 3-(3-(cyclopropylsulfonyl)phenyl)-6-(4-((2R,6S)-2,6-dimethylpiperazin-1-yl)phenyl)pyrazolo[1,5-a]pyrimidine], the IC50 was 970 nM against ALK3, over 10000 nM against ALK6, under 1 nM at ALK2 [1] (setting [3]) and 17 nM on ALK2 [2].
Consider `N/C(=N/O)c1ccc(-c2cnn3cc(-c4ccc(N5CCNCC5)cc4)cnc23)c2ccccc12` [Compound 15, N′-hydroxy-4-(6-(4-(piperazin-1-yl)phenyl)pyrazolo[1,5-a]pyrimidin-3-yl)-1-naphthimidamide], for which the IC50 is 1340 nM against ALK3, 12800 nM on ALK6, 170 nM at ALK2 [1] (setting [3]) and 43 nM at ALK2 [2].
As for `CC(O)c1cccc(-c2cnn3cc(-c4ccc(OC5(CN6CCCCC6)CC5)cc4)cnc23)c1` (stereo not drawn) [Compound 143, 1-(3-(6-(4-(1-(piperidin-1-ylmethyl)cyclopropoxy)phenyl)pyrazolo[1,5-a]pyrimidin-3-yl)phenyl)ethanol], the IC50 turned out to be 1400 nM at ALK3, 9600 nM at ALK6, 230 nM at ALK2 [1] (setting [4]) and 47 nM on ALK2 [2].
